Test results as given in patent US20170050957A1, “4-AMINO-6-(HETEROCYCLIC)PICOLINATES AND 6-AMINO-2-(HETEROCYCLIC)PYRIMIDINE-4-CARBOXYLATES AND THEIR USE AS HERBICIDES” (Dow AgroSciences LLC, priority 2013, published 2017).

Tested on: Wheat and Barley and test plant species
Assay: Post-emergent Test III, herbicidal activity in wheat and barley (Table 17; visual injury, GR20/GR50/GR80/GR90)
Format: in vivo
Conditions: 21 d; for Visual Growth Reduction (%) 21 Days After Application, CIRAR / Visual Growth Reduction (%) 21 Days After Application, GALAP / Visual Growth Reduction (%) 21 Days After Application, HORVS / Visual Growth Reduction (%) 21 Days After Application, KCHSC / Visual Growth Reduction (%) 21 Days After Application, LAMPU / Visual Growth Reduction (%) 21 Days After Application, MATCH / Visual Growth Reduction (%) 21 Days After Application, PAPRH / Visual Growth Reduction (%) 21 Days After Application, SASKR / Visual Growth Reduction (%) 21 Days After Application, SINAR / Visual Growth Reduction (%) 21 Days After Application, TRZAS / Visual Growth Reduction (%) 21 Days After Application, VERPE / Visual Growth Reduction (%) 21 Days After Application, VIOTR: post-emergent
Protocol: Post-emergent Test III. Seeds of the desired test plant species were planted in Sun Gro MetroMix® 306 planting mixture, which typically has a pH of 6.0 to 6.8 and an organic matter content of about 30 percent, in plastic pots with a surface area of 103.2 square centimeters (cm^2). When required to ensure good germination and healthy plants, a fungicide treatment and/or other chemical or physical treatment was applied. The plants were grown for 7-36 days (d) in a greenhouse with an approximate 14 hour (h) photoperiod which was maintained at about 18° C. during the day and 17° C. during the night. Nutrients and water were added on a regular basis and supplemental lighting was provided with overhead metal halide 1000-Watt lamps as necessary. The plants were employed for testing when they reached the second or third true leaf stage.
A weighed amount, determined by the highest rate to be tested, of each test compound was placed in a 25 mL glass vial and was dissolved in 4 mL of a 97:3 v/v mixture of acetone and DMSO to obtain concentrated stock solutions. […] The concentrated stock solutions obtained were diluted with 20 mL of an aqueous mixture containing acetone, water, isopropyl alcohol, DMSO, Agri-Dex crop oil concentrate, and X-77 surfactant in a 48:39:10:1.5:1.5:0.02 v/v ratio to obtain spray solutions containing the highest application rates. Additional application rates were obtained by serial dilution of 12 mL of the high rate solution into a solution containing 2 mL of 97:3 v/v mixture of acetone and DMSO and 10 mL of an aqueous mixture containing acetone, water, isopropyl alcohol, DMSO, Agri-Dex crop oil concentrate, and X-77 surfactant in a 48:39:10:1.5:1.5:0.02 v/v ratio to obtain 1/2×, 1/4×, 1/8× and 1/16× rates of the high rate. Compound requirements are based upon a 12 mL application volume at a rate of 187 liters per hectare (L/ha). Formulated compounds were applied to the plant material with an overhead Mandel track sprayer equipped with 8002E nozzles calibrated to deliver 187 L/ha over an application area of 0.503 square meters at a spray height of 18 inches (43 cm) above the average plant canopy height. Control plants were sprayed in the same manner with the solvent blank.
The treated plants and control plants were placed in a greenhouse as described above and watered by subirrigation to prevent wash-off of the test compounds. After 21 d, the condition of the test plants as compared with that of the untreated plants was determined visually and scored on a scale of 0 to 100 percent where 0 corresponds to no injury and 100 corresponds to complete kill. By applying the well-accepted probit analysis as described by J. Berkson in Journal of the American Statistical […], 48, 565 (1953) and by D. Finney in “Probit Analysis” Cambridge University Press (1952), the above data can be used to calculate GR20, GR50, GR80 and GR90 values, which are defined as growth reduction factors that correspond to the effective dose of herbicide required to kill or control 20 percent, 50 percent, 80 percent or 90 percent, respectively, of a target plant.

`Nc1c(F)c(-c2ccc3cc[nH]c3c2F)nc(C(=O)O)c1Cl` [Compound 1.16, 4-Amino-3-chloro-5-fluoro-6-(7-fluoro-1H-indol-6-yl)picolinic acid] was tested, and the “Visual Growth Reduction (%) 21 Days After Application, CIRAR” value (CIRAR, 17.5 g ai/ha) was “D (60-74)”, the “Visual Growth Reduction (%) 21 Days After Application, CIRAR” value (CIRAR, 35 g ai/ha) was “B (85-94)” and the “Visual Growth Reduction (%) 21 Days After Application, CIRAR” value (CIRAR, 70 g ai/ha) was “A (95-100)”. For the same compound, the “GR50, CIRAR” value (CIRAR, dose for 50 percent growth reduction, probit analysis) was 9 g ai/ha, the “GR80, CIRAR” value (CIRAR, dose for 80 percent growth reduction, probit analysis) was 25 g ai/ha and the “GR90, CIRAR” value (CIRAR, dose for 90 percent growth reduction, probit analysis) was 43 g ai/ha. The “Visual Growth Reduction (%) 21 Days After Application, GALAP” value (GALAP, 17.5 g ai/ha) was “F (30-44)”, the “Visual Growth Reduction (%) 21 Days After Application, GALAP” value (GALAP, 35 g ai/ha) was “E (45-59)” and the “Visual Growth Reduction (%) 21 Days After Application, GALAP” value (GALAP, 70 g ai/ha) was “A (95-100)”. For the same compound, the “GR50, GALAP” value (GALAP, dose for 50 percent growth reduction, probit analysis) was 26 g ai/ha, the “GR80, GALAP” value (GALAP, dose for 80 percent growth reduction, probit analysis) was 34 g ai/ha and the “GR90, GALAP” value (GALAP, dose for 90 percent growth reduction, probit analysis) was 40 g ai/ha. The “Visual Growth Reduction (%) 21 Days After Application, HORVS” value (HORVS, 17.5 g ai/ha) was “G (0-29)”, the “Visual Growth Reduction (%) 21 Days After Application, HORVS” value (HORVS, 35 g ai/ha) was “G (0-29)” and the “Visual Growth Reduction (%) 21 Days After Application, HORVS” value (HORVS, 70 g ai/ha) was “F (30-44)”. The “GR20, HORVS” value (HORVS, dose for 20 percent growth reduction, probit analysis) was 44 g ai/ha, the “Visual Growth Reduction (%) 21 Days After Application, KCHSC” value (KCHSC, 17.5 g ai/ha) was “C (75-84)” and the “Visual Growth Reduction (%) 21 Days After Application, KCHSC” value (KCHSC, 35 g ai/ha) was “B (85-94)”. The “Visual Growth Reduction (%) 21 Days After Application, KCHSC” value (KCHSC, 70 g ai/ha) was “A (95-100)”, the “GR50, KCHSC” value (KCHSC, dose for 50 percent growth reduction, probit analysis) was 7 g ai/ha and the “GR80, KCHSC” value (KCHSC, dose for 80 percent growth reduction, probit analysis) was 20 g ai/ha. For the same compound, the “GR90, KCHSC” value (KCHSC, dose for 90 percent growth reduction, probit analysis) was 39 g ai/ha, the “Visual Growth Reduction (%) 21 Days After Application, LAMPU” value (LAMPU, 17.5 g ai/ha) was “C (75-84)” and the “Visual Growth Reduction (%) 21 Days After Application, LAMPU” value (LAMPU, 35 g ai/ha) was “A (95-100)”. The “Visual Growth Reduction (%) 21 Days After Application, LAMPU” value (LAMPU, 70 g ai/ha) was “A (95-100)”, the “GR50, LAMPU” value (LAMPU, dose for 50 percent growth reduction, probit analysis) was 3 g ai/ha and the “GR80, LAMPU” value (LAMPU, dose for 80 percent growth reduction, probit analysis) was 10 g ai/ha. For the same compound, the “GR90, LAMPU” value (LAMPU, dose for 90 percent growth reduction, probit analysis) was 19 g ai/ha, the “Visual Growth Reduction (%) 21 Days After Application, MATCH” value (MATCH, 17.5 g ai/ha) was “B (85-94)” and the “Visual Growth Reduction (%) 21 Days After Application, MATCH” value (MATCH, 35 g ai/ha) was “A (95-100)”. For the same compound, the “Visual Growth Reduction (%) 21 Days After Application, MATCH” value (MATCH, 70 g ai/ha) was “A (95-100)”, the “GR50, MATCH” value (MATCH, dose for 50 percent growth reduction, probit analysis) was 3 g ai/ha and the “GR80, MATCH” value (MATCH, dose for 80 percent growth reduction, probit analysis) was 9 g ai/ha. For the same compound, the “GR90, MATCH” value (MATCH, dose for 90 percent growth reduction, probit analysis) was 16 g ai/ha, the “Visual Growth Reduction (%) 21 Days After Application, PAPRH” value (PAPRH, 17.5 g ai/ha) was “A (95-100)” and the “Visual Growth Reduction (%) 21 Days After Application, PAPRH” value (PAPRH, 35 g ai/ha) was “A (95-100)”. For the same compound, the “Visual Growth Reduction (%) 21 Days After Application, PAPRH” value (PAPRH, 70 g ai/ha) was “A (95-100)”, the “GR50, PAPRH” value (PAPRH, dose for 50 percent growth reduction, probit analysis) was 0.0004 g ai/ha and the “GR80, PAPRH” value (PAPRH, dose for 80 percent growth reduction, probit analysis) was 0.0004 g ai/ha. For the same compound, the “GR90, PAPRH” value (PAPRH, dose for 90 percent growth reduction, probit analysis) was 0.0004 g ai/ha, the “Visual Growth Reduction (%) 21 Days After Application, SASKR” value (SASKR, 17.5 g ai/ha) was “D (60-74)” and the “Visual Growth Reduction (%) 21 Days After Application, SASKR” value (SASKR, 35 g ai/ha) was “C (75-84)”. The “Visual Growth Reduction (%) 21 Days After Application, SASKR” value (SASKR, 70 g ai/ha) was “B (85-94)”, the “GR50, SASKR” value (SASKR, dose for 50 percent growth reduction, probit analysis) was 10 g ai/ha and the “GR80, SASKR” value (SASKR, dose for 80 percent growth reduction, probit analysis) was 28 g ai/ha. The “GR90, SASKR” value (SASKR, dose for 90 percent growth reduction, probit analysis) was 78 g ai/ha, the “Visual Growth Reduction (%) 21 Days After Application, SINAR” value (SINAR, 17.5 g ai/ha) was “B (85-94)” and the “Visual Growth Reduction (%) 21 Days After Application, SINAR” value (SINAR, 35 g ai/ha) was “A (95-100)”. The “Visual Growth Reduction (%) 21 Days After Application, SINAR” value (SINAR, 70 g ai/ha) was “A (95-100)”, the “GR50, SINAR” value (SINAR, dose for 50 percent growth reduction, probit analysis) was 5 g ai/ha and the “GR80, SINAR” value (SINAR, dose for 80 percent growth reduction, probit analysis) was 11 g ai/ha. The “GR90, SINAR” value (SINAR, dose for 90 percent growth reduction, probit analysis) was 17 g ai/ha, the “Visual Growth Reduction (%) 21 Days After Application, TRZAS” value (TRZAS, 17.5 g ai/ha) was “G (0-29)” and the “Visual Growth Reduction (%) 21 Days After Application, TRZAS” value (TRZAS, 35 g ai/ha) was “G (0-29)”. For the same compound, the “Visual Growth Reduction (%) 21 Days After Application, TRZAS” value (TRZAS, 70 g ai/ha) was “F (30-44)”, the “GR20, TRZAS” value (TRZAS, dose for 20 percent growth reduction, probit analysis) was 41 g ai/ha and the “Visual Growth Reduction (%) 21 Days After Application, VERPE” value (VERPE, 17.5 g ai/ha) was “A (95-100)”. The “Visual Growth Reduction (%) 21 Days After Application, VERPE” value (VERPE, 35 g ai/ha) was “A (95-100)”, the “Visual Growth Reduction (%) 21 Days After Application, VERPE” value (VERPE, 70 g ai/ha) was “A (95-100)” and the “GR50, VERPE” value (VERPE, dose for 50 percent growth reduction, probit analysis) was 0.0004 g ai/ha. The “GR80, VERPE” value (VERPE, dose for 80 percent growth reduction, probit analysis) was 0.05 g ai/ha, the “GR90, VERPE” value (VERPE, dose for 90 percent growth reduction, probit analysis) was 1 g ai/ha and the “Visual Growth Reduction (%) 21 Days After Application, VIOTR” value (VIOTR, 17.5 g ai/ha) was “E (45-59)”. For the same compound, the “Visual Growth Reduction (%) 21 Days After Application, VIOTR” value (VIOTR, 35 g ai/ha) was “D (60-74)”, the “Visual Growth Reduction (%) 21 Days After Application, VIOTR” value (VIOTR, 70 g ai/ha) was “C (75-84)” and the “GR50, VIOTR” value (VIOTR, dose for 50 percent growth reduction, probit analysis) was 19 g ai/ha. The “GR80, VIOTR” value (VIOTR, dose for 80 percent growth reduction, probit analysis) was 56 g ai/ha and the “GR90, VIOTR” value (VIOTR, dose for 90 percent growth reduction, probit analysis) was 99 g ai/ha.
